Measurements taken from ChEMBL document CHEMBL1255193, “Structure-based optimization of pyrazolo-pyrimidine and -pyridine inhibitors of PI3-kinase” (Bioorg Med Chem Lett, 2010).
Converted amounts (≈) assume the structure as drawn.

Legend:
[1] = target: Phosphatidylinositol 4,5-bisphosphate 3-kinase catalytic subunit alpha isoform (Homo sapiens, UniProt P42336); experiment: Inhibition of PI3Kalpha
Bcrp1 [2] = experiment: Apparent permeability of the compound from apical to basolateral direction in MDCK2 cells expressing Bcrp1; type: ADME, cell-based, Canis lupus familiaris, MDCK-II; settings: dog
[3] = Ratio of permeability from […] side in MDCK2 cells expressing Bcrp1 in presence of fumitremorgin C; type: ADME, cell-based, Canis lupus familiaris; settings: dog, mdck-ii
MCF7 = experiment: Cytotoxicity against human MCF7 cells; type: functional, cell-based
Bcrp1 [4] = experiment: Apparent permeability of the compound from apical to basolateral direction in MDCK2 cells expressing Bcrp1 in presence of fumitremorgin C; type: ADME, cell-based, Canis lupus familiaris, MDCK-II; settings: dog, with fumitremorgin C
[5] = Apparent permeability of the compound from apical to basolateral direction in MDCKI cells; type: ADME, cell-based, Canis lupus familiaris; settings: dog, MDCK
[6] = Ratio of permeability from basolateral to apical over apical to basolateral side in MDCKI cells; settings: dog
MDR1 = experiment: Apparent permeability of the compound from apical to basolateral direction in MDCKI cells expressing MDR1; type: ADME, cell-based, Canis lupus familiaris; settings: dog, MDCK-MDR1
[7] = Oral bioavailability in rat at 5 mg/kg; type: ADME, organism-based; settings: in vivo
[8] = Solubility of the compound at pH 6.5; type: physicochemical; settings: buffer
[9] = Ratio of permeability from basolateral to apical over apical to basolateral side in MDCK2 cells expressing Bcrp1; settings: dog, mdck-ii
[10] = Ratio of permeability from basolateral to apical over apical to basolateral side in MDCKI cells expressing MDR1; settings: dog
[11] = Plasma clearance in rat; type: ADME, organism-based
Mus musculus [12] = experiment: In vivo inhibition of PI3K in human PC3 cells xenografted athymic nude mouse assessed as reduction of phosphorylated S6RP level at 50 mg/kg, po after 6 hrs; type: functional; settings: PC-3, 6 h
[13] = Plasma clearance in human PC3 cells xenografted athymic nude mouse; type: ADME, organism-based, PC-3
[14] = Plasma protein binding in mouse; type: ADME, cell-free; settings: read-out: PPB (converted)
Mus musculus [15] = experiment: In vivo inhibition of PI3K in human PC3 cells xenografted athymic nude mouse assessed as reduction of phosphorylated S6RP level at 50 mg/kg, po after 1 hr; type: functional; settings: PC-3, 1 h
[16] = target: Serine/threonine-protein kinase mTOR (Homo sapiens, UniProt P42345); experiment: Inhibition of mTOR; settings: read-out: Ki(app)
Mus musculus [17] = experiment: In vivo inhibition of PI3K in human PC3 cells xenografted athymic nude mouse assessed as reduction of phosphorylated PRAS40 level at 50 mg/kg, po after 6 hrs; type: functional; settings: PC-3, 6 h
[18] = Inhibition of human Cytochrome P450; type: ADME
Mus musculus [19] = experiment: In vivo inhibition of PI3K in human PC3 cells xenografted athymic nude mouse assessed as reduction of phosphorylated PRAS40 level at 50 mg/kg, po after 1 hr; type: functional; settings: PC-3, 1 h
[20] = target: Receptor-type tyrosine-protein kinase FLT3 (Homo sapiens) (UniProt P36888); experiment: Inhibition of FLT3 at 1 uM
[21] = Metabolic stability in human hepatocytes assessed as compound remaining after 3 hrs; type: ADME, cell-based, Hepatocyte; settings: read-out: Stability
Mus musculus [22] = experiment: In vivo inhibition of PI3K in human PC3 cells xenografted athymic nude mouse assessed as reduction of phosphorylated Akt level at 50 mg/kg, po after 6 hrs; type: functional; settings: PC-3, 6 h
[23] = Volume of distribution at steady state in human PC3 cells xenografted athymic nude mouse; type: ADME, organism-based, PC-3; settings: in vivo, read-out: Vdss
[24] = target: DNA-dependent protein kinase catalytic subunit (Homo sapiens, UniProt P78527); experiment: Inhibition of DNA-PK
DNA-dependent protein kinase catalytic subunit, sequence (P78527 whole entry): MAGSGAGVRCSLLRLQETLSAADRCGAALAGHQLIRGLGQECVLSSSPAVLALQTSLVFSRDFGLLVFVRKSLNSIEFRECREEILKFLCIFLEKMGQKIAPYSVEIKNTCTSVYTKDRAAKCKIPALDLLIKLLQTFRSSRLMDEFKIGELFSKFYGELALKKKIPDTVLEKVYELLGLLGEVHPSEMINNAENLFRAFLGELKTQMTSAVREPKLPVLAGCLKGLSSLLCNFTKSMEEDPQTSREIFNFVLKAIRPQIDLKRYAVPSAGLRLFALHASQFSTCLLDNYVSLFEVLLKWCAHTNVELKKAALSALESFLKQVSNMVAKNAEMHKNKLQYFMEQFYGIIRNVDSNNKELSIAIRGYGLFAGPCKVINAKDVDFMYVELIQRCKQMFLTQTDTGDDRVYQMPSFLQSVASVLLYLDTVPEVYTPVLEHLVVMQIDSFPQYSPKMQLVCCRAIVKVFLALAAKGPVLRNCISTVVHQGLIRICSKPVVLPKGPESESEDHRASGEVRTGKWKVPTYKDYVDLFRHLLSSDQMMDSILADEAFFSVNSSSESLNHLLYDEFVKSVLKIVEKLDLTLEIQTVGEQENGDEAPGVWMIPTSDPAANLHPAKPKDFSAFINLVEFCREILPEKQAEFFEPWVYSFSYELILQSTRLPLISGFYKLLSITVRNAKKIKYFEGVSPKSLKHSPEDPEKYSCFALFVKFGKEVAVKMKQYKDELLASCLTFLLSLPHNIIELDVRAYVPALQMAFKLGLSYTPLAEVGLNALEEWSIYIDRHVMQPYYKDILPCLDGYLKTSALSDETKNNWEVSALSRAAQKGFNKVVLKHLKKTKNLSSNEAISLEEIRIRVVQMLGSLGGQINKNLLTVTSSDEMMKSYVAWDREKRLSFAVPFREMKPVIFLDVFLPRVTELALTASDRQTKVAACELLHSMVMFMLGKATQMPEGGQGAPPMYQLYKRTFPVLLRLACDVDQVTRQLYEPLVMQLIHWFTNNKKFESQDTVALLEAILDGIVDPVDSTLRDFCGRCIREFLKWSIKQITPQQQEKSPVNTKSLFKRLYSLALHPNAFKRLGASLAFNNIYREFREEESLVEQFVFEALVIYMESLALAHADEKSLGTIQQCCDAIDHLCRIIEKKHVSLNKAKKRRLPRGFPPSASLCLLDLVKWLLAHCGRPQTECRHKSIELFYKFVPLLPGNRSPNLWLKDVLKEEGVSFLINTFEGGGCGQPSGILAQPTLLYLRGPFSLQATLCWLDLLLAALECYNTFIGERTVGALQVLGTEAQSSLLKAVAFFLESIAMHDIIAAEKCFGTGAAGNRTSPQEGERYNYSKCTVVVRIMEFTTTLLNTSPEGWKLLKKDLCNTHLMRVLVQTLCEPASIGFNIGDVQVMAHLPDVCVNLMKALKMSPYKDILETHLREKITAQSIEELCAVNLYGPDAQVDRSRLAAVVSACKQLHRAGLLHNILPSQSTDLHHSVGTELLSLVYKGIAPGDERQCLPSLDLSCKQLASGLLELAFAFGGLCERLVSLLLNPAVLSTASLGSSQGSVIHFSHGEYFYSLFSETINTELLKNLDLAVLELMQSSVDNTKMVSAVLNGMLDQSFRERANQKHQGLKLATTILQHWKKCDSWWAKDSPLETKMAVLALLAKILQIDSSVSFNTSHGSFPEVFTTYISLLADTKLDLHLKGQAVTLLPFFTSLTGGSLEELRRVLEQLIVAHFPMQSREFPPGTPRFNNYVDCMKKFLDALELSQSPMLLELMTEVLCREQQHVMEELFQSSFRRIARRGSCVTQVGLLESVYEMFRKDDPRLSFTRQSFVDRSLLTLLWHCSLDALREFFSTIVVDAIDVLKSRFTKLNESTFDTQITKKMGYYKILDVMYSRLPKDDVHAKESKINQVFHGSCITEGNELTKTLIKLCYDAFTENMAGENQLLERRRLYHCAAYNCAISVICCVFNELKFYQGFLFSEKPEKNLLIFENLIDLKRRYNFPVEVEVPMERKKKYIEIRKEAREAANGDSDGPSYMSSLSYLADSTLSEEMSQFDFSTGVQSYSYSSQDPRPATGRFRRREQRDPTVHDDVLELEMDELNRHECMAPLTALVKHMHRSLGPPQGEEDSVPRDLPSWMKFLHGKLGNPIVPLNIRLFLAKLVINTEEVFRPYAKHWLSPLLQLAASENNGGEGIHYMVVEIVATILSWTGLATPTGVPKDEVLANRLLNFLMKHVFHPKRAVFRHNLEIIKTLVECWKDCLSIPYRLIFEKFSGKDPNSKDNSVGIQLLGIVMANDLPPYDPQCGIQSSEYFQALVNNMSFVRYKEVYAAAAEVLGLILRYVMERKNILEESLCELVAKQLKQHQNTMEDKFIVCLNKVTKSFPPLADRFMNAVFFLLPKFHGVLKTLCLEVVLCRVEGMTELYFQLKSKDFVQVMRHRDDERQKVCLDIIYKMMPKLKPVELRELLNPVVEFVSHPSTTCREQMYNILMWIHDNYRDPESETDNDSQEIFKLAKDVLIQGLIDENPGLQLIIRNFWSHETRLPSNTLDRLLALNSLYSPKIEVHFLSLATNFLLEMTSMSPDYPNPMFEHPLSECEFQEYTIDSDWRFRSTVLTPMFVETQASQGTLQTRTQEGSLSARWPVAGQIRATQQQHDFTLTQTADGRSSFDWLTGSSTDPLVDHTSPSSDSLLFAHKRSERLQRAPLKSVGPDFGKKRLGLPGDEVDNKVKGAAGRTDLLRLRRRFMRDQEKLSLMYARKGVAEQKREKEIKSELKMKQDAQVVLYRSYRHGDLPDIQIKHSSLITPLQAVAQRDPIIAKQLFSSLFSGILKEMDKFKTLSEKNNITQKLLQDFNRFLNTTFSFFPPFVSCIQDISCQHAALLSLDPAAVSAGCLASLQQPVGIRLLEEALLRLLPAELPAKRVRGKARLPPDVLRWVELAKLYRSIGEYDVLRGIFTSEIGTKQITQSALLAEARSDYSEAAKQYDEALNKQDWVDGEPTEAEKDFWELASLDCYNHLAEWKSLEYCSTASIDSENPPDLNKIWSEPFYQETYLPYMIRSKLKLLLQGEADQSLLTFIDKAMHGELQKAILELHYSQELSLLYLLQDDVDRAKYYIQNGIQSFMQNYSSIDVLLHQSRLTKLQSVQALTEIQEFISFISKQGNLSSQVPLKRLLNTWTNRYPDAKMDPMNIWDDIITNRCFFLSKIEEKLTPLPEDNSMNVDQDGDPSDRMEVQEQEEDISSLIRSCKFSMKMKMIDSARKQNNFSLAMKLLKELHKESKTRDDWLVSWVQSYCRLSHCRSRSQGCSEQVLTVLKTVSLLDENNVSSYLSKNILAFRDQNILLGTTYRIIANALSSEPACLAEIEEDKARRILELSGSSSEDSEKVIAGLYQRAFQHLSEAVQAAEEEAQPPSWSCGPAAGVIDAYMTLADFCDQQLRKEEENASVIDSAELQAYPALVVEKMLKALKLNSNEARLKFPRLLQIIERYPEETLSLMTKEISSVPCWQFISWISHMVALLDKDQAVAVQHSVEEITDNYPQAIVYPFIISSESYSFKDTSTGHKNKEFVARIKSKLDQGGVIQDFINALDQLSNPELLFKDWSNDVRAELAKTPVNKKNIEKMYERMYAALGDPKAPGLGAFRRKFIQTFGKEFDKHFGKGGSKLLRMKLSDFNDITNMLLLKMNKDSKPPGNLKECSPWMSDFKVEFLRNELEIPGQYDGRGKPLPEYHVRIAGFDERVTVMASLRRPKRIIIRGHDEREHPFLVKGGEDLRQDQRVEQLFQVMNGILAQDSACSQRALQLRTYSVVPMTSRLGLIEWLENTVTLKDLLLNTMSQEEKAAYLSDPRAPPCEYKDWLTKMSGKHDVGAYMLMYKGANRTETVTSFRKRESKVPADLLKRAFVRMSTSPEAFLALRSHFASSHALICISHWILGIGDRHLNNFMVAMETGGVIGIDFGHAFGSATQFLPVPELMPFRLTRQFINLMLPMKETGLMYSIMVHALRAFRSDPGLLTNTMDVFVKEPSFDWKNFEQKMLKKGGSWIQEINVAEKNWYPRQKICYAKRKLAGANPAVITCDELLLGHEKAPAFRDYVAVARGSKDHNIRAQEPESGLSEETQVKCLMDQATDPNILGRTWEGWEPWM

[25] = Metabolic stability in mouse hepatocytes assessed as compound remaining after 3 hrs; type: ADME, cell-based, Hepatocyte; settings: read-out: Stability
[26] = Oral bioavailability in human PC3 cells xenografted athymic nude mouse at 5 mg/kg; type: ADME, organism-based, PC-3; settings: in vivo
Mus musculus [27] = experiment: In vivo inhibition of PI3K in human PC3 cells xenografted athymic nude mouse assessed as reduction of phosphorylated Akt level at 50 mg/kg, po after 1 hr; type: functional; settings: PC-3, 1 h

Phosphatidylinositol 4,5-bisphosphate 3-kinase catalytic subunit alpha isoform, sequence (P42336 whole entry, canonical isoform): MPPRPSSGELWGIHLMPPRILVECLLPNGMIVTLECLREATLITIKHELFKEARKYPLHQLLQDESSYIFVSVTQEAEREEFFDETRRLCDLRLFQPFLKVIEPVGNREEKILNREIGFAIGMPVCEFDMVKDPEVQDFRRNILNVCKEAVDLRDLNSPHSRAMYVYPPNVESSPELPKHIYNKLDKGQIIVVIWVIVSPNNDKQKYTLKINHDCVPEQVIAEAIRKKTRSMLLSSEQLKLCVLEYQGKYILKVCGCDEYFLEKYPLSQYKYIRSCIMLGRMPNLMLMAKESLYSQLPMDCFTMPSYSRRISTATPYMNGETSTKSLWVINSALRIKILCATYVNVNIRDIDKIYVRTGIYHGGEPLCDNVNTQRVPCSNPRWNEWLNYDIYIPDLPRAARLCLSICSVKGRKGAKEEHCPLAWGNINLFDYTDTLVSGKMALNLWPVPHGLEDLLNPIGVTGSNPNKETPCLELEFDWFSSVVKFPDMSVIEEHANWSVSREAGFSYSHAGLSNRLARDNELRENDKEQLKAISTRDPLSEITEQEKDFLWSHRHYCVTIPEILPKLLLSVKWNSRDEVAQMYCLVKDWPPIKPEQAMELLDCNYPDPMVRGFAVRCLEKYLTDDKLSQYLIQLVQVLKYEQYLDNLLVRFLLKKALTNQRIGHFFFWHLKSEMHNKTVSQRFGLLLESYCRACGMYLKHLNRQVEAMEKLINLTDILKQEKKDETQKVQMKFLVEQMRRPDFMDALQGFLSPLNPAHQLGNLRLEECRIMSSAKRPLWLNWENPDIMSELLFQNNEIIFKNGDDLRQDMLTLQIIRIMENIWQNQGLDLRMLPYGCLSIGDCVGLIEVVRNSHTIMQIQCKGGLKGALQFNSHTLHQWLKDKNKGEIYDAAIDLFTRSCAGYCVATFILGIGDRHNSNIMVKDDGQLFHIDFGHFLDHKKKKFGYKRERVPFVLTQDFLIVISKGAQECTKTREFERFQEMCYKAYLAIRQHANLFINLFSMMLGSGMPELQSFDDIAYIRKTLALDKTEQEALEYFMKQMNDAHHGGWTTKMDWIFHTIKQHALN

Structure (SMILES): Cn1ncc2c(Nc3ccc(S(C)(=O)=O)cc3)nc(-c3cccc4[nH]ncc34)nc21
- IC50 [1]: 1.4 nM
- Papp A→B (Bcrp1 [2]): 0.03 ×10⁻⁶ cm/s
- Ratio [3]: 17.6
- EC50 (MCF7): 87 nM
- Papp A→B (Bcrp1 [4]): 0.63 ×10⁻⁶ cm/s
- Papp A→B [5]: 0.37 ×10⁻⁶ cm/s
- Ratio [6]: 6.7
- Papp A→B (MDR1): 0.13 ×10⁻⁶ cm/s
- bioavailability [7]: 0%
- solubility [8]: 7.1 µg/mL (≈ 16.9 µM)
- Ratio [9]: 311
- Ratio [10]: 79
- clearance [11]: 20 mL/min/kg

Structure (SMILES): COc1cccc(Nc2nc(-c3cccc4onc(C)c34)nc3c2cnn3C)c1
- IC50 [1]: 1.7 nM

Structure (SMILES): Cn1ncc2c(NCC(C)(C)CO)nc(-c3cccc4[nH]ncc34)nc21
- IC50 [1]: 1.1 nM
- clearance [11]: 103 mL/min/kg

Structure (SMILES): COc1cccc(Nc2nc(-c3cccc4[nH]nc(N)c34)nc3c2cnn3C)c1
- IC50 [1]: 11 nM

Structure (SMILES): CN1CCC(Nc2nc(-c3cccc4[nH]ncc34)nc3c2cnn3C)CC1
- IC50 [1]: 8.3 nM
- EC50 (MCF7): 1500 nM
- clearance [11]: 176 mL/min/kg

Structure (SMILES): Cn1ncc2c(NCCCS(C)(=O)=O)nc(-c3cccc4n[nH]cc34)nc21
- EC50 (MCF7): 403 nM
- clearance [11]: 139 mL/min/kg

Structure (SMILES): COc1cccc(Nc2nc(-c3cccc(OC)c3)nc3c2cnn3C)c1
- IC50 [1]: 134 nM

Structure (SMILES): COc1cccc(Nc2nc(-c3cccc(C(N)=O)c3)nc3c2cnn3C)c1
- IC50 [1]: 72 nM

Structure (SMILES): CNC(=O)c1cccc(-c2nc(Nc3cccc(OC)c3)c3cnn(C)c3n2)c1
- IC50 [1]: 3640 nM

Structure (SMILES): COc1cccc(Nc2nc(-c3cccc(S(C)(=O)=O)c3)nc3c2cnn3C)c1
- IC50 [1]: 56 nM

Structure (SMILES): COc1cccc(Nc2nc(N3CCC(O)CC3)nc3c2cnn3C)c1
- IC50 [1]: 430 nM

Structure (SMILES): COc1cccc(Nc2nc(-c3cccnc3)nc3c2cnn3C)c1
- IC50 [1]: 29 nM

Structure (SMILES): Cn1ncc2c(Oc3ccc(S(C)(=O)=O)cc3)cc(-c3cccc4[nH]ncc34)nc21
- inhibition in vivo at 50 mg/kg (Mus musculus [12]): 17%
- clearance [13]: 12.7 mL/min/kg
- fraction unbound [14]: 0.012
- inhibition in vivo at 50 mg/kg (Mus musculus [15]): 36%
- Ki [16]: > 10000 nM
- inhibition in vivo at 50 mg/kg (Mus musculus [17]): 11%
- Papp A→B [5]: 13.9 ×10⁻⁶ cm/s
- IC50 [18]: > 20000 nM
- Papp A→B (MDR1): 1.2 ×10⁻⁶ cm/s
- bioavailability [7]: 107%
- solubility [8]: 15 µg/mL (≈ 35.8 µM)
- inhibition in vivo at 50 mg/kg (Mus musculus [19]): 23%
- inhibition [20]: 27%
- remaining at 3 h [21]: 94%
- inhibition in vivo at 50 mg/kg (Mus musculus [22]): 34%
- clearance [11]: 8.4 mL/min/kg
- Vd [23]: 1.1 L/kg
- IC50 [24]: 1020 nM
- remaining at 3 h [25]: 100%
- bioavailability [26]: 110%
- inhibition in vivo at 50 mg/kg (Mus musculus [27]): 44%

Structure (SMILES): COc1cccc(Nc2nc(-c3cccc4[nH]ncc34)nc3c2cnn3C)c1
- IC50 [1]: 1.4 nM

Structure (SMILES): Cn1ncc2c(-c3ccc(S(C)(=O)=O)cc3)nc(-c3cccc4[nH]ncc34)nc21
- IC50 [1]: 4.9 nM
- Papp A→B (Bcrp1 [2]): 3.8 ×10⁻⁶ cm/s
- Papp A→B [5]: 31.5 ×10⁻⁶ cm/s
- Ratio [6]: 0.5
- Papp A→B (MDR1): 7.6 ×10⁻⁶ cm/s
- solubility [8]: < 1 µg/mL
- Ratio [9]: 4.8
- Ratio [10]: 3.2

Structure (SMILES): COc1cccc(Nc2nc(N3CCCCC3)nc3c2cnn3C)c1
- IC50 [1]: 359 nM

Structure (SMILES): COc1cccc(Nc2nc(N3CC(C)OC(C)C3)nc3c2cnn3C)c1 (stereo not drawn)
- IC50 [1]: 370 nM

Structure (SMILES): Cn1ncc2c(Oc3ccc(S(C)(=O)=O)cc3)nc(-c3cccc4[nH]ncc34)nc21
- IC50 [1]: 3 nM
- Papp A→B (Bcrp1 [2]): 0.05 ×10⁻⁶ cm/s
- Papp A→B [5]: 2.5 ×10⁻⁶ cm/s
- Ratio [6]: 0.7
- Papp A→B (MDR1): 0.8 ×10⁻⁶ cm/s
- bioavailability [7]: 29%
- solubility [8]: 16 µg/mL (≈ 38.1 µM)
- Ratio [9]: 55.1
- Ratio [10]: 4.2
- clearance [11]: 2 mL/min/kg

Structure (SMILES): COc1cccc(Nc2nc(-c3cccc(NC(C)=O)c3)nc3c2cnn3C)c1
- IC50 [1]: 386 nM

Structure (SMILES): COc1cccc(Nc2nc(N3CCOCC3)nc3c2cnn3C)c1
- IC50 [1]: 162 nM

Structure (SMILES): COc1cccc(Nc2nc(-c3cnc(N)nc3)nc3c2cnn3C)c1
- IC50 [1]: 16 nM
